Test results published in patent US6803374B2, “Compounds useful for treating hepatitis C virus” (priority 2001, dated 2004).
pIC50: −log10 of the molar value.

target: T1, HCV NS5B RdRp genotype 1b (Hepatitis C virus genotype 1b, UniProt Q9WMX2); assay: HCV NS5B RdRp enzyme assay; format: biochemical; conditions: IC50, HCV RdRp genotype 1b enzyme, C-terminal 18 aa truncated; average of single point IC50 values
T1 construct: The protein was expressed with an 18 amino acid C-terminal truncation to enhance the solubility; made in house; host or cells: E. coli BL21(DE3)
T1 sequence (Q9WMX2 2420-2992): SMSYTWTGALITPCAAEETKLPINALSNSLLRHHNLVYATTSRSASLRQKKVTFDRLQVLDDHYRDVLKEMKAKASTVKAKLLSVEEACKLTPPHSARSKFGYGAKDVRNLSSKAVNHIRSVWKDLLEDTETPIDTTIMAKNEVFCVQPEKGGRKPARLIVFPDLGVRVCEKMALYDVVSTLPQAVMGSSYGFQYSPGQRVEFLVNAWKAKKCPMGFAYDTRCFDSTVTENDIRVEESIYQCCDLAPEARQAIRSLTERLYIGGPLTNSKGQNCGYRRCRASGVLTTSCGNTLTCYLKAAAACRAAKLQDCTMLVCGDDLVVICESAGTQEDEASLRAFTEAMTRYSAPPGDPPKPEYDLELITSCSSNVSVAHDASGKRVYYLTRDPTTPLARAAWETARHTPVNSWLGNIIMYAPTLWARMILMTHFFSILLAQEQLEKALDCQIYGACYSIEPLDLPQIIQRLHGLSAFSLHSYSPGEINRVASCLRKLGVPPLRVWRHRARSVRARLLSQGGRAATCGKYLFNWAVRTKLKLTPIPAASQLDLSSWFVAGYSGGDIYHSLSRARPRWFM
Experimental: HCV NS5B RdRp cloning, expression and purification. The cDNA encoding the NS5B protein of HCV, genotype 1b, was cloned into the pET21a expression vector. The protein was expressed with an 18 amino acid C-terminal truncation to enhance the solubility. The E. coli competent cell line BL21(DE3) was used for expression of the protein. Cultures were grown at 37° C. for ˜4 hours until the cultures reached an optical density of 2.0 at 600 nm. The cultures were cooled to 20° C. and induced with 1 mM IPTG. Fresh ampicillin was added to a final concentration of 50 ug/ml and the cells were grown overnight at 20° C.
Cell pellets (3L) were lysed for purification to yield 15-24 mgs of purified NS5B. The lysis buffer consisted of 20 mM Tris-HCl, pH 7.4, 500 mM NaCl, 0.5% triton X-100, 1 mM DTT, 1 mM EDTA, 20% glycerol, 0.5 mg/ml lysozyme, 10 mM MgCl2, 15 ug/ml deoxyribonuclease I, and Complete TM protease inhibitor tablets (Roche). After addition of the lysis buffer, frozen cell pellets were resuspended using a tissue homogenizer. To reduce the viscosity of the sample, aliquots of the lysate were sonicated on ice using a microtip attached to a Branson sonicator. The sonicated lysate was centrifuged at 100,000×g for 1 hr at 4° C. and filtered through a 0.2 μm filter unit (Corning).
The protein was purified using three sequential chromatography steps: Heparin sepharose CL-6B, polyU sepharose 4B, and Hitrap SP sepharose (Pharmacia). The chromatography buffers were identical to the lysis buffer but contained no lysozyme, deoxyribonuclease I, MgCl2 or protease inhibitor and the NaCl concentration of the buffer was adjusted according to the requirements for charging the protein onto the column. Each column was eluted with a NaCl gradient which varied in length from 5-50 column volumes depending on the column type. After the final chromatography step, the resulting purity of the enzyme is >90% based on SDS-PAGE analysis. The enzyme was aliquoted and stored at −80° C.
HCV NS5B RdRp enzyme assay. HCV RdRp genotype 1b assays were run in assay buffer composed of 20 mM Tris-HCl, pH 7.5, 2.5 mM KCl, 5 mM MgCl2, 1 mM DTT, 1.6 U RNAse inhibitor (Promega N2515), in 96 well plates (Falcon 3918). All compounds were serially diluted in DMSO and diluted further in assay buffer such that the final concentration of DMSO in the assay was 2%. Compounds were serially diluted (3-fold each time) for a 7 point inhibition analysis. HCV RdRp genotype 1b enzyme was used at a final concentration of 28 nM. A polyA template was used at 28 nM, and the oligo-dT12-18 primer was used at 840 nM final concentration. Preannealed primer and template were obtained commercially (Amersham 27-787802). ^3H-UTP was used at 0.125 μCi (1 μM total UTP). Reaction was initiated by the addition of enzyme. Reactions were incubated at 30° C. for 45 min, and stopped by adding 30 ul of 20% ice cold TCA. Plates were chilled for 30 minutes and harvested onto Unifilter-96, GF/B plates (Packard, 6005177) using a Packard FilterMate Cell Harvester. The harvest plates were prewashed 3 times, 200 ul/well, with 100 mM NaPPi. Harvested filters were washed 30 times, 200 ul/well, with distilled water followed by ethanol. Filter plates were dried, and 30 ul/well microscint-20 was added. Plates were read on a Packard Top Count NXT.
The IC50 values for compounds were determined using […] different [I], combined with 7 nM enzyme, 800 ng of the template-primer polyC/oligoG12 (1:5 molar ratio), and 0.7 uM of ^3H GTP containing 1 uCi. The observed fractional activity (fa=vi/vo) was used in the equation IC50=[I]/(1/fa-1) to determine a single point IC50 value. Typically, the single point IC50 values derived from [I] that produced fractional activities in the range of 0.1 to 0.8 relative to the uninhibited control were averaged to calculate the IC50 value for each compound.

Structure (SMILES) | pIC50
CC(C)(C)OC(=O)CNC(=O)c1ccc(-c2ccc(F)c(Cl)c2)c(COc2ccc(-c3nc4cc(-c5nnn[nH]5)ccc4n3C3CCCCC3)cc2)c1 [Example 84] | 5.92
CC(C)(C)OC(=O)C(Cc1cc2ccccc2[nH]1)NC(=O)c1ccc(-c2ccc(F)c(Cl)c2)c(COc2ccc(-c3nc4cc(-c5nnn[nH]5)ccc4n3C3CCCCC3)cc2)c1 (stereo not drawn) [Example 85] | 5.64
O=C(O)CNC(=O)c1ccc(-c2ccc(F)c(Cl)c2)c(COc2ccc(-c3nc4cc(-c5nnn[nH]5)ccc4n3C3CCCCC3)cc2)c1 [Example 86] | 6.49
COc1ccc(-c2ccc(C(=O)N3CCOCC3)cc2COc2ccc(-c3nc4cc(-c5nnn[nH]5)ccc4n3C3CCCCC3)cc2)cc1OC [Example 88] | 6.33
COc1ccc(-c2ccc(C(=O)N3CCCC3)cc2COc2ccc(-c3nc4cc(-c5nnn[nH]5)ccc4n3C3CCCCC3)cc2)cc1OC [Example 89] | 6.34
COc1ccc(-c2ccc(C(=O)NCCCO)cc2COc2ccc(-c3nc4cc(-c5nnn[nH]5)ccc4n3C3CCCCC3)cc2)cc1OC [Example 90] | 6.20
CNC(=O)c1ccc(-c2ccc(OC)c(OC)c2)c(COc2ccc(-c3nc4cc(-c5nnn[nH]5)ccc4n3C3CCCCC3)cc2)c1 [Example 91] | 6.59
COc1ccc(-c2ccc(C(=O)N(CCO)CCO)cc2COc2ccc(-c3nc4cc(-c5nnn[nH]5)ccc4n3C3CCCCC3)cc2)cc1OC [Example 93] | 6.16
COc1ccc(-c2ccc(C(=O)NC(C)C(=O)OC(C)(C)C)cc2COc2ccc(-c3nc4cc(-c5nnn[nH]5)ccc4n3C3CCCCC3)cc2)cc1OC (stereo not drawn) [Example 94] | 5.68
COc1ccc(-c2ccc(C(=O)NC(Cc3ccc(O)cc3)C(=O)OC(C)(C)C)cc2COc2ccc(-c3nc4cc(-c5nnn[nH]5)ccc4n3C3CCCCC3)cc2)cc1OC (stereo not drawn) [Example 95] | 5.85
COc1ccc(-c2ccc(C(=O)NCC(=O)OC(C)(C)C)cc2COc2ccc(-c3nc4cc(-c5nnn[nH]5)ccc4n3C3CCCCC3)cc2)cc1OC [Example 96] | 5.80
COc1ccc(-c2ccc(C(=O)NCC(=O)O)cc2COc2ccc(-c3nc4cc(-c5nnn[nH]5)ccc4n3C3CCCCC3)cc2)cc1OC [Example 98] | 6.68
CNC(=O)c1ccc(-c2ccc(Cl)cc2)c(COc2ccc(-c3nc4cc(-c5nnn[nH]5)ccc4n3C3CCCCC3)cc2)c1 [Example 106] | 6.18
O=C(O)c1ccc(-c2cccs2)c(COc2ccc(-c3nc4cc(-c5nnn[nH]5)ccc4n3C3CCCCC3)cc2)c1 [Example 114] | 7.15
O=C(O)c1ccc(-c2ccsc2)c(COc2ccc(-c3nc4cc(-c5nnn[nH]5)ccc4n3C3CCCCC3)cc2)c1 [Example 115] | 7.40
O=C(O)c1ccc(-c2cc3ccccc3o2)c(COc2ccc(-c3nc4cc(-c5nnn[nH]5)ccc4n3C3CCCCC3)cc2)c1 [Example 116] | 6.77
O=C(O)c1ccc(-c2ccco2)c(COc2ccc(-c3nc4cc(-c5nnn[nH]5)ccc4n3C3CCCCC3)cc2)c1 [Example 117] | 6.54
O=C(O)c1ccc(-c2ccc3c(c2)OCO3)c(COc2ccc(-c3nc4cc(-c5nnn[nH]5)ccc4n3C3CCCCC3)cc2)c1 [Example 118] | 7.15
O=C(O)c1ccc(-c2cc3ccccc3s2)c(COc2ccc(-c3nc4cc(-c5nnn[nH]5)ccc4n3C3CCCCC3)cc2)c1 [Example 119] | 7.52
CC(=O)c1ccc(-c2ccc(C(=O)O)cc2COc2ccc(-c3nc4cc(-c5nnn[nH]5)ccc4n3C3CCCCC3)cc2)s1 [Example 120] | 7.70

Structure (SMILES) | pIC50
O=C(O)c1ccc(-c2ccc3[nH]ccc3c2)c(COc2ccc(-c3nc4cc(-c5nnn[nH]5)ccc4n3C3CCCCC3)cc2)c1 [Example 121] | 7.52
O=Cc1ccoc1-c1ccc(C(=O)O)cc1COc1ccc(-c2nc3cc(-c4nnn[nH]4)ccc3n2C2CCCCC2)cc1 [Example 122] | 6.17
O=C(O)c1ccc(-c2cccc3cccnc23)c(COc2ccc(-c3nc4cc(-c5nnn[nH]5)ccc4n3C3CCCCC3)cc2)c1 [Example 123] | 6.36
O=C(NC(Cc1ccc(O)cc1)C(=O)O)c1ccc(-c2ccsc2)c(COc2ccc(-c3nc4cc(-c5nnn[nH]5)ccc4n3C3CCCCC3)cc2)c1 (stereo not drawn) [Example 129] | 6.54
NC(=O)CCNC(=O)c1ccc(-c2ccsc2)c(COc2ccc(-c3nc4cc(-c5nnn[nH]5)ccc4n3C3CCCCC3)cc2)c1 [Example 131] | 6.64
CN1CCN(C(=O)c2ccc(-c3ccsc3)c(COc3ccc(-c4nc5cc(-c6nnn[nH]6)ccc5n4C4CCCCC4)cc3)c2)CC1 [Example 132] | 6.08
O=C(c1ccc(-c2ccsc2)c(COc2ccc(-c3nc4cc(-c5nnn[nH]5)ccc4n3C3CCCCC3)cc2)c1)N1CCOCC1 [Example 133] | 5.96
O=C(c1ccc(-c2ccsc2)c(COc2ccc(-c3nc4cc(-c5nnn[nH]5)ccc4n3C3CCCCC3)cc2)c1)N1CCCC1 [Example 134] | 6.43
O=C(NCCCO)c1ccc(-c2ccsc2)c(COc2ccc(-c3nc4cc(-c5nnn[nH]5)ccc4n3C3CCCCC3)cc2)c1 [Example 135] | 6.15
CNC(=O)c1ccc(-c2ccsc2)c(COc2ccc(-c3nc4cc(-c5nnn[nH]5)ccc4n3C3CCCCC3)cc2)c1 [Example 136] | 6.66
O=C(c1ccc(-c2ccsc2)c(COc2ccc(-c3nc4cc(-c5nnn[nH]5)ccc4n3C3CCCCC3)cc2)c1)N1CCC(O)CC1 [Example 137] | 5.89
O=C(c1ccc(-c2ccsc2)c(COc2ccc(-c3nc4cc(-c5nnn[nH]5)ccc4n3C3CCCCC3)cc2)c1)N(CCO)CCO [Example 138] | 5.52
CC(C)(C)OC(=O)C(Cc1ccc(O)cc1)NC(=O)c1ccc(-c2ccsc2)c(COc2ccc(-c3nc4cc(-c5nnn[nH]5)ccc4n3C3CCCCC3)cc2)c1 (stereo not drawn) [Example 140] | 5.67
CC(C)(C)OC(=O)CNC(=O)c1ccc(-c2ccsc2)c(COc2ccc(-c3nc4cc(-c5nnn[nH]5)ccc4n3C3CCCCC3)cc2)c1 [Example 141] | 5.55
O=C(O)CNC(=O)c1ccc(-c2ccsc2)c(COc2ccc(-c3nc4cc(-c5nnn[nH]5)ccc4n3C3CCCCC3)cc2)c1 [Example 143] | 7.10
N#Cc1ccc(-c2ccc(C(=O)N3CCC(O)CC3)cc2COc2ccc(-c3nc4cc(-c5nnn[nH]5)ccc4n3C3CCCCC3)cc2)cc1 [Example 149] | 6.66
CN(C)C(=O)c1ccc(-c2ccc3[nH]cc(C(=O)C(F)(F)F)c3c2)c(COc2ccc(-c3nc4cc(-c5nnn[nH]5)ccc4n3C3CCCCC3)cc2)c1 [Example 152] | 6.38
O=C(O)CNC(=O)c1ccc(-c2ccc3[nH]cc(C(=O)C(F)(F)F)c3c2)c(COc2ccc(-c3nc4cc(-c5nnn[nH]5)ccc4n3C3CCCCC3)cc2)c1 [Example 153] | 6.59
NC(=O)CCNC(=O)c1ccc(-c2ccc3[nH]cc(C(=O)C(F)(F)F)c3c2)c(COc2ccc(-c3nc4cc(-c5nnn[nH]5)ccc4n3C3CCCCC3)cc2)c1 [Example 155] | 6.57
